Source: patent publication US20230250096A1, “SUBSTITUTED PHENYL-1H-PYRROLO[2,3-c] PYRIDINE DERIVATIVES” (Janssen Pharmaceutica NV, priority 2021, published 2023)
Where two headings read alike, the source gives them in different places.

Assays:
Assay type in all cases: cell-based, human
MOLM14 cells = test: Proliferation assay (spheroid confluence, 8 days), MOLM14; settings: read-out: spheroid assay_MOLM14 IC50
In short: (§1)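 Absolute IC50 derived from spheroid confluence imaged on day 8, scaled between DMSO (0%) and a cytotoxic low control such as 1 μM staurosporin, fitted with variable slope, bounds fixed at 0 and 100%. Seeding 200 cells/well (300 for KO-52), ultra-low attachment plates, 0.3% DMSO, 37° C.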

OCI-AML3 cells = test: Proliferation assay (spheroid confluence, 8 days), OCI-AML3; settings: read-out: spheroid assay_OCI-AML3 IC50
Protocol: The anti-proliferative effect of menin/MLL protein/protein interaction inhibitor test compounds was assessed in human leukemia cell lines. The cell line MOLM14 harbors a MLL translocation and expresses the MLL fusion protein MLL-AF9, respectively, as well as the wildtype protein from the second allele. OCI-AML3 cells that carry the NPM1c gene mutation were also tested. […] KO-52 was used as a control cell line containing two MLL (KMT2A) wildtype alleles in order to exclude compounds that display general cytotoxic effects.
MOLM14 cells were cultured in RPMI-1640 (Sigma Aldrich) supplemented with 10% heat-inactivated fetal bovine serum (HyClone), 2 mM L-glutamine (Sigma Aldrich) and 50 μg/ml gentamycin (Gibco). KO-52 and OCI-AML3 cell lines were propagated in alpha-MEM (Sigma Aldrich) supplemented with 20% heat-inactivated fetal bovine serum (HyClone), 2 mM L-glutamine (Sigma Aldrich) and 50 μg/ml gentamycin (Gibco).
In order to assess the anti-proliferative effects, 200 MOLM14 cells, 200 OCI-AML3 cells or 300 KO-52 cells were seeded in 200 μl media per well in 96-well round bottom, ultra-low attachment plates (Costar, catalogue number 7007). Cell seeding numbers were chosen based on growth curves to ensure linear growth throughout the experiment. Test compounds were added at different concentrations and the DMSO content was normalized to 0.3%. Cells were incubated for 8 days at 37° C. and 5% CO2. Spheroid like growth was measured in real-time by live-cell imaging (IncuCyteZOOM, Essenbio, 4×objective) acquiring images at day 8. Confluence (%) as a measure of spheroid size was determined using an integrated analysis tool.
In order to determine the effect of the test compounds over time, the confluence in each well as a measure of spheroid size, was calculated. Confluence of the highest dose of a reference compound was used as baseline for the LC (Low control) and the confluence of DMSO treated cells was used as 0% cytotoxicity (High Control, HC).
Absolute IC50 values were calculated as percent change in confluence as follows:
LC=Low Control: cells treated with e.g. 1 μM of the cytotoxic agent staurosporin, or e.g. cells treated with a high concentration of an alternative reference compound
HC=High Control: Mean confluence (%) (DMSO treated cells)
% Effect=100−(100*(Sample−LC)/(HC−LC))
GraphPad Prism (version 7.00) was used to calculate the IC50. Dose-response equation was used for the plot of % Effect vs Log10 compound concentration with a variable slope and fixing the maximum to 100% and the minimum to 0%.

KO-52 cells = test: Proliferation assay (spheroid confluence, 8 days), KO-52 control cell line; settings: read-out: spheroid assay_KO-52 IC50
In short: as §1

[1] = Homo sapiens, OCI-AML-3, OCI-AML3

Row | IC50 (MOLM14 cells; MOLM14) [nM] | IC50 (OCI-AML3 cells; [1]) [nM] | IC50 (MOLM14 cells; Homo sapiens, MOLM-14, MOLM14) [nM] | IC50 (OCI-AML3 cells; OCI-AML3) [nM] | Compound | IC50 (KO-52 cells) [nM] | IC50 (KO-52 cells; Homo sapiens) [nM]
1 | – | – | 169 | – | CC(=O)NC1CCC(N2CC[C@H](Cc3cn(-c4ccc(F)cc4C(=O)N(C)C(C)C)c4cncc(C)c34)C2)CC1 (some centres unmarked) [Compound 211] | – | > 15000
2 | – | – | 15 | – | Cc1cncc2c1c(CC1CN(CC3CCOCC3)C1)cn2-c1ccc(F)cc1C(=O)N1CCC2CC21 (centres unmarked) [Compound 262] | – | 2900
3 | – | – | 20 | – | Cc1cncc2c1c(CC1CN(CC3CCOCC3)C1)cn2-c1ccc(F)cc1C(=O)N1CC2CC1CO2 (centres unmarked) [Compound 264] | – | 13500
4 | – | – | 88 | – | Cc1cncc2c1c(CC1CN(CC3CCOCC3)C1)cn2-c1ccc(F)cc1C(=O)N1CCCC1CO (centres unmarked) [Compound 268] | – | > 15000
5 | – | – | 12 | – | Cc1cncc2c1c(CC1CN(CC3CCOCC3)C1)cn2-c1ccc(F)cc1C(=O)N1CCC[C@H]1C [Compound 279] | – | 5100
6 | – | – | 10 | – | Cc1cncc2c1c(CC1CN(CC3CCOCC3)C1)cn2-c1ccc(F)cc1C(=O)N(CCO)C(C)C [Compound 281] | – | 4200
7 | – | – | 17 | – | CC(=O)N1CCC(CN2CC[C@@H](Cc3cn(-c4ccc(F)cc4C(=O)N4CCC5CC54)c4cncc(C)c34)C2)CC1 (some centres unmarked) [Compound 311] | – | 5200
8 | – | – | 33 | – | CC(=O)N1CCC(CN2CC[C@@H](Cc3cn(-c4ccc(F)cc4C(=O)N4CC5CC4CO5)c4cncc(C)c34)C2)CC1 (some centres unmarked) [Compound 312] | – | > 15000
9 | – | – | 10 | – | CC(=O)N1CCC(CN2CC[C@@H](Cc3cn(-c4ccc(F)cc4C(=O)N4CCC[C@H]4C)c4cncc(C)c34)C2)CC1 [Compound 315] | – | 2400
10 | – | – | 12 | – | CC(=O)N1CCC(CN2CC[C@@H](Cc3cn(-c4ccc(F)cc4C(=O)N4[C@@H](C)CC[C@@H]4C)c4cncc(C)c34)C2)CC1 [Compound 316] | – | 8900
11 | – | – | 139 | – | CC(=O)N1CCC(CN2CC[C@@H](Cc3cn(-c4ccc(F)cc4C(=O)N4CCC[C@@H]4C)c4cncc(C)c34)C2)CC1 [Compound 319] | – | > 15000
12 | – | – | 19 | – | CC(=O)N1CCC(CN2CC[C@@H](Cc3cn(-c4ccc(F)cc4C(=O)N(CC(C)O)C(C)C)c4cncc(C)c34)C2)CC1 (some centres unmarked) [Compound 320] | – | 6900
13 | – | 52 | 50 | – | Cc1cncc2c1c(C[C@@H]1CCN(CC3CCN(C(=O)C(C)C)CC3)C1)cn2-c1ccc(F)cc1C(=O)N1CCC[C@H]1CO [Compound 328] | – | –

More lines, now with the values behind:

Row | Compound | IC50 (MOLM14 cells; MOLM14) [nM] | IC50 (OCI-AML3 cells; [1]) [nM] | IC50 (MOLM14 cells; Homo sapiens, MOLM-14, MOLM14) [nM] | IC50 (OCI-AML3 cells; OCI-AML3) [nM] | IC50 (KO-52 cells) [nM] | IC50 (KO-52 cells; Homo sapiens) [nM]
14 | CN=S(=O)(c1cc(F)ccc1-n1cc(CC2CCN(CC3CCOCC3)C2)c2c(C)cncc21)C(C)C (single isomer, unassigned) [Compound 77b] | 81 | 128 | – | – | 1900 | –
15 | CC(=O)N1CCC(N2CC[C@H](Cc3cn(-c4ccc(F)cc4C(=O)N(C)C(C)C)c4cncc(C)c34)C2)CC1 (single isomer, unassigned) [Compound 81] | – | 100 | 58 | – | – | 4000
16 | Cc1cncc2c1c(CC1CCN(CC3CCN(C(=O)[C@@H](C)O)CC3)C1)cn2-c1ccc(F)cc1C(=O)N(C)C(C)C (single isomer, unassigned) [Compound 85] | – | 22 | 12 | – | – | 2200
17 | Cc1cncc2c1c(CC1CCN(CC3CCN(C(=O)[C@H](C)O)CC3)C1)cn2-c1ccc(F)cc1C(=O)N(C)C(C)C (single isomer, unassigned) [Compound 86] | – | 23 | 10 | – | – | 1300
18 | CC(=O)N1CCC(C(C)N2CCC(Cc3cn(-c4ccc(F)cc4C(=O)N(C)C(C)C)c4cncc(C)c34)C2)CC1 (single isomer, unassigned) [Compound 116a] | – | 9 | 8 | – | – | 3800
19 | Cc1cncc2c1c(CC1CCN(CC3CCN(C(=O)C(C)(C)O)CC3)C1)cn2-c1ccc(F)cc1C(=O)N(C)C(C)C (single isomer, unassigned) [Compound 125] | – | 12 | 11 | – | – | 7000
20 | COCC(=O)N1CCC(CN2CC[C@@H](Cc3cn(-c4ccc(F)cc4C(=O)N(C)C(C)C)c4cncc(C)c34)C2)CC1 (single isomer, unassigned) [Compound 136] | – | 54 | 28 | – | – | 1400
21 | CC(=O)N1CCC(N2CC[C@H](Cc3cn(-c4ccc(F)cc4C(=O)N(C)C(C)C)c4cncc(C)c34)C2)C(C)C1 (single isomer, unassigned) [Compound 137a] | – | 23 | 15 | – | – | 1100
22 | CNC(=O)[C@H]1CC[C@H](CN2CC([C@H](C)c3cn(-c4ccc(F)cc4C(=O)N(C)C(C)C)c4cncc(C)c34)C2)CC1 (single isomer, unassigned) [Compound 164b] | – | 12 | 10 | – | – | 10400
23 | Cc1cncc2c1c(CC1CCN(CC3CCC(=O)N(C)CC3)C1)cn2-c1ccc(F)cc1C(=O)N(C)C(C)C (single isomer, unassigned) [Compound 184a] | 13 | – | – | 26 | – | > 15000
24 | Cc1cncc2c1c(CC1CCN(CC3CCC(=O)N(C)CC3)C1)cn2-c1ccc(F)cc1C(=O)N(C)C(C)C (single isomer, unassigned) [Compound 184b] | 52 | – | – | 138 | > 15000 | –
25 | Cc1cncc2c1c(C[C@@H]1CCN([C@@H](CO)C3CCCOC3)C1)cn2-c1ccc(F)cc1C(=O)N(C)C(C)C (single isomer, unassigned) [Compound 198a] | – | 15 | 10 | – | – | –
26 | Cc1cncc2c1c(C[C@@H]1CCN([C@H](CO)C3CCCOC3)C1)cn2-c1ccc(F)cc1C(=O)N(C)C(C)C (single isomer, unassigned) [Compound 198b] | – | 156 | – | – | – | > 15000
27 | Cc1cncc2c1c(C[C@@H]1CCN(C[C@H]3CCCCN3)C1)cn2-c1ccc(F)cc1C(=O)N(C)C(C)C [Compound 199] | – | – | 126 | – | – | 11800
28 | CC(=O)NC1CCC(N2CC[C@@H](Cc3cn(-c4ccc(F)cc4C(=O)N(C)C(C)C)c4cncc(C)c34)C2)CC1 (some centres unmarked) [Compound 200] | 679 | – | – | – | – | > 15000
29 | CC(=O)NC1CCC(N2CC[C@@H](Cc3cn(-c4ccc(F)cc4C(=O)N(C)C(C)C)c4cncc(C)c34)C2)CC1 (some centres unmarked) [Compound 201] | 31 | 35 | – | – | – | –
30 | CNC(=O)N1CCC(CN2CCC(Cc3cn(-c4ccc(F)cc4C(=O)N(C)C(C)C)c4cncc(C)c34)CC2)CC1 [Compound 202] | – | – | 7 | – | – | 3400
31 | CON(C)C(=O)N1CCC(CN2CCC(Cc3cn(-c4ccc(F)cc4C(=O)N(C)C(C)C)c4cncc(C)c34)CC2)CC1 [Compound 203] | – | – | 12 | – | – | 2900
32 | Cc1cncc2c1c(CC1CCN(CC3CCN(C(=O)N4CCOCC4)CC3)CC1)cn2-c1ccc(F)cc1C(=O)N(C)C(C)C [Compound 204] | – | – | 16 | – | – | 1600
33 | Cc1cncc2c1c(C[C@@H]1CCN(CC3CCC(O)CC3)C1)cn2-c1ccc(F)cc1C(=O)N(C)C(C)C (some centres unmarked) [Compound 205] | – | – | 19 | – | – | 2500
34 | Cc1cncc2c1c(C[C@@H]1CCN(CC3CCN(C(N)=O)CC3)C1)cn2-c1ccc(F)cc1C(=O)N(C)C(C)C [Compound 207] | – | – | 16 | – | – | 14300
35 | CC(=O)N1CC2CC(C1)C2N1CC[C@H](Cc2cn(-c3ccc(F)cc3C(=O)N(C)C(C)C)c3cncc(C)c23)C1 (some centres unmarked) [Compound 208] | – | – | 224 | – | – | > 15000
36 | CC(=O)N1CC2CC(C1)C2N1CC[C@@H](Cc2cn(-c3ccc(F)cc3C(=O)N(C)C(C)C)c3cncc(C)c23)C1 (some centres unmarked) [Compound 209] | – | – | 458 | – | – | 12800
